One series relates to H9c2. Kind of series: Protection against H2O2 induced myocardial cell injury in rat H9c2 cells at 10 uM pretreated for 24 hrs followed by H2O2 exposure and measured after 1.5 hrs (reference value: 17.91 to 57.32%). In kind it is functional. The conditions noted are these: time 25.5 hrs.
The nature of series [1]: Toxicity in C57BL/6 mouse assessed as effect on body weight at 25 to 50 mg/kg, ip measured after 21 days. In kind it is organism-based. The conditions noted are these: in vivo, 504 h, dose 25-50 mg/kg, time 21 day.
A further series relates to MGC-803. Description: Induction of apoptosis in human MGC-803 cells assessed as necrotic cells at 2 uM measured after 48 hrs by Annexin V-EGFP and PI staining based flow cytometry analysis (reference value: 3.90%). It is filed as functional.
Series [2] can be described thus: AUC (0 to infinity) in male Sprague-Dawley rat at 7 mg/kg,po measured upto 8 hrs by UPLC-MS/MS analysis. In kind it is ADME, organism-based. As to conditions: in vivo.
The subject of another series is Mus musculus. Kind of series: Cardioprotective activity against myocardial ischemia/reperfusion induced C57BL/6J mouse model assessed as reduction in ST-segment elevation at 2.5 to 10 mg/kg. It is filed as functional, organism-based. The conditions noted are these: dose 2.5-10 mg/kg.

The record followed here is ChEMBL document CHEMBL5550215, “Discovery of Novel Imidazo[1,2-a]pyridine-Based HDAC6 Inhibitors as an Anticarcinogen with a Cardioprotective Effect” (J Med Chem, 2024).

Activity calls are given as the source filed them. No cut-off for these calls is given here.

Usually AUC(0-inf) stands for the area under the concentration-time curve extrapolated to infinity. Turning to `O=C(NO)c1ccc(CNC(=O)c2cc(-c3ccc(F)cc3)cn3ccnc23)cc1`, the results for the Activity (in the series with H9c2; in series [1]; with MGC-803) were 66.13%, “Non-Toxic” and 4.83%, respectively. The same compound gave an area under the curve AUC(0-inf) in series [2] of 105 ng·h/mL. In addition, in the series with Mus musculus, the outcome was Active.
